Laboratory results: patent publication US9902761B2, “Polypeptides, nucleic acids and uses thereof” (AGENCY FOR SCIENCE, TECHNOLOGY AND RESEARCH, priority 2013, dated 2018)

Experiments:
CXCR4 [1] = target: T1, CXCR4 (Homo sapiens, UniProt P61073); assay: ELA receptor binding assay (ELA-AP) on 293T cells transfected with receptor; set-up: 293T cells transfected with plasmids encoding full-length ORFs of putative receptors; expressed in transfected cells; host or cells: 293T; conditions: ELA-AP conditioned medium, 3 hours
T1 sequence (P61073 whole entry): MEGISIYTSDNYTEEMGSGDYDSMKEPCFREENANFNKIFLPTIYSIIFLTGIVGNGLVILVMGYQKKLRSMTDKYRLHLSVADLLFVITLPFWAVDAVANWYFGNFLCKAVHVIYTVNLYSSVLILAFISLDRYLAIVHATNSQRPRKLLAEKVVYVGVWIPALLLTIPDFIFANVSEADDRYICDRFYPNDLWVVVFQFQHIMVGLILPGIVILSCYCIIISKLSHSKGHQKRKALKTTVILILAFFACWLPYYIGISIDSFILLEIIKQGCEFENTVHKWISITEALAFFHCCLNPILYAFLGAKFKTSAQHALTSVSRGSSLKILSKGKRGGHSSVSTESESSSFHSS
Procedure: Secreted ELA-Alkaline Phosphatase (ELA-AP) was produced by transfecting a construct encoding ELA-AP into 293T cells, as described previously (Chng et al., 2013). Conditioned medium from ELA-AP expressing cells was then incubated for 3 hours with 293T cells transfected with plasmids encoding full-length ORFs of putative receptors. Unbound ELA-AP was washed away and cells were lysed with 1% Triton-X/PBS. Lysates were cleared and incubated with an AP substrate BCIP/NBT at 37° C. for 15 minutes. Optical density was read at 495 nm, and the intensity of blue coloration is directly proportional to the affinity of ELA-AP to the over-expressed receptor.

hESCs [2] = assay: stress-induced apoptosis of hESCs by ActinomycinD; assay type: cell-based, human
Procedure: To induce apoptosis, hESCs were treated with the indicated doses of ActinomycinD (Sigma) or ionizing radiation followed by Aqueous One Cell Titer (Promega) or CASPASE GLO3/7 (Promega) assays 12 hours post-treatment.

[3] = hypertension, APELIN experiments repeated with ELABELA; conditions: in vivo
From the text: Regulatory Peptides. 2001; 99(2-3):87-92. • Cheng X, Cheng X S, Pang C C. […] European Journal of Pharmacology. […] Journal of the American College of Cardiology. 2008; 52(11):908-913.

[4] = erectile dysfunction, APELIN experiments repeated with ELABELA; conditions: in vivo
From the text: J Sex Med. 2013 Apr. 11. doi: 10.11 l/jsm.12158.

PI3K/AKT pathway = assay: signaling pathway assay in starved hESCs pulsed with peptide (SDS-PAGE, western); assay type: cell-based, human
Procedure: To assay the signaling pathway activated by ELA, hESCs were dissociated and plated in mTSER1 for 48 hours, followed by a 2-hour starvation in DMEM/F12. Synthetically produced ELA or ELA^RR>GG peptides, dialyzed against PBS to remove any residual synthesis buffers, were added at a final concentration of 5 uM (or as indicate(D) for the indicated period of time. Where applicable, PI3K inhibitors LY294002 (5 uM) and Wortmannin (1 uM) were added 30 minutes before pulsing with ELA peptides. Cells were lysed with PhosphoSafe™ (Millipore) for SDS-PAGE.

hECs = assay: growth and survival effect of recombinant ELA on hECs; assay type: cell-based, human
Procedure: Primary human fibroblasts, SW1353 chondrosarcoma (ATCC) and NTERA2 hECs (a gift from Barbara Knowles and Davor Solter) were grown in Dulbecco's modified Eagle's medium (DMEM) with 10% FBS (Hyclone), 2 mM GlutaMAX™ (Invitrogen) and 1 mM sodium pyruvate. For xCELLigence real time growth assays, 4000 cells were plated per well of an E-plate (ACEA Biosciences) with media changes every 48 hours. […] Cell cycle studies were performed with Click-iT EDU staining kit (Invitrogen) and by performing a double thymidine block (2.5 mM thymidine; 16 hour block, 8 hour release, 16 hour block) followed by DAPI staining for DNA content at the indicated times following release.

hESCs [5] = assay: directed endoderm differentiation of hESCs, SOX17+ cell count; assay type: cell-based, human; conditions: 2.5 uM ELA peptide up to day 3, count on day 5
Procedure: Shef4TetR5-shELA and Shef4TetR5-shβ2M cells were cultured in the presence (shELA and shβ2M respectively) or absence (Control) of 20 ng/ml doxycycline for 1 passage (4 days) and dissociated with Accutase. […] 24 hours later, the media was changed to Endo differentiation media 1 [RPMI 1640 (Gibco), 1× B-27 supplement (Invitrogen), 50 ng/ml of Activin A (R&D Systems), 25 ng/ml BMP4 (R&D Systems) and 50 ng/ml bFGF (Invitrogen)] for 3 days. On day 3, the media was changed to Endo differentiation media 2 (RPMI 1640, B27, 50 ng/ml Activin) for 2 more days of culture. Rescue experiments were performed by adding 2.5 uM of ELA peptide to Shef4TetR5-shELA concurrently with doxycycline up to day 3, when the ELA peptide is no longer necessary as judged by downregulation of endogenous ELA.
On day 5, cells were fixed with 4% paraformaldehyde and stained with α SOX17 (AF1924, R&D Systems) and DAPI. For each well, three different randomly selected fields were imaged and the number of nuclei staining positive of SOXI 7 and DAPI were counted using a custom macro in ImageJ. A minimum of two wells per condition was used for each experiment, and a minimum of two independent experiments were performed to generate the results.

hESCs [6] = assay: embryoid body differentiation of ELA-treated hESCs (qPCR); assay type: cell-based, human
Procedure: Embryoid body differentiation was performed by plating 1 million cells per well of an Aggrewell 400 plate in Aggrewell Medium (Stem Cell Technologies) followed by harvesting and replating into low-adhesion plates (Corning).
After the indicated time periods, embryoid bodies were harvested and RNA extracted using RNeasy kit ([…]). qPCR reactions were carried out using either Universal FastSlart SYBR Green Mastermix (Roche) or using the Universal Probe Library system (Roche) in tandem with Taqman Fast Mastermix (Invitrogen). Primer sequences can be found in Table E1.

hESCs [7] = assay: stress-induced apoptosis of hESCs by ActinomycinD; assay type: cell-based, human; remark: listed apart in the source
CXCR4 [8] = target: T1, CXCR4; assay: PathHunter β-Arrestin CXCR4 assay, activation; assay type: cell-based; conditions: β-Arrestin recruitment
Procedure: To detect activation of CXCR4 by ELA or SDF-1, recombinant ELA or SDF-1 were added in increasing concentrations for 90-180 minutes to cells stably expressing CXCR4 coupled to a downstream reporter. β-Arrestin recruitment was measured using the PathHunter® β-Arrestin CXCR4 assay (DiscoveRx). Interaction of CXCR4 with Arrestin was detected by Enzyme Fragment Complementation (EFC) between two complementary domains of β-galactosidase (β-Gal), one fused to CXCR4 and the other fused to β-Arrestin. β-Arrestin recruitment to CXCR4 results in complementation of the two domains to generate β-Gal activity. % Ac ? vity=100%×(mean RLU of test sample−mean RLU of vehicle control)/(mean MAX control ligand−mean RLU of vehicle control). To detect antagonism of SDF-1 by ELA, the assay was run in antagonist mode by measuring the EC50 of ELA in the presence of SDF-1 at EC80 concentration. To detect synergism between ELA and SDF-1, the assay was run in positive allosteric mode by measuring the EC50 of ELA in the presence of SDF-1 at EC20 concentration.

QRPVNLTMRRKLRKHNCLQRRCMPLHSRVPFP [ELA]
cell surface binding to CXCR4 (CXCR4 [1]): confers cell surface binding to ELA
activated CASPASE3/7 and CASPASE 9 after ActinomycinD (hESCs [2]): entirely suppressed
resistance or sensitivity to ActinomycinD (hESCs [2]; nanomolar concentrations of ActinomycinD): conferred significant resistance to control hESCs and completely rescued shELA hESCs
blood pressure [3]: causes a reduction in blood pressure
erectile function [4]: significant restoration of erectile function
activation of ERK and SMAD2 (PI3K/AKT pathway): little to no activation of ERK and SMAD2
activation of PI3K/AKT and mTORC1 pathway (p70S6K phosphorylation) (PI3K/AKT pathway): activates the PI3K/AKT pathway and subsequently the mTORC1 pathway
phosphorylation of AKT at serine 473 and PRAS40 at threonine 246 (PI3K/AKT pathway; 5 uM peptide after 2-hour starvation): sufficient to trigger the immediated phosphorylation of AKT at serine 473
activity of recombinant ELA on hECs (hECs): exerted activity only on hESCs cultures and no other differentiated cell types
rescue of SOX17+ endoderm differentiation of shELA hESCs (hESCs [5]): entirely rescued
lineage bias during embryoid body differentiation (hESCs [6]): not biased towards mesoderm or endoderm lineages
levels of MCL-1 (hESCs [7]): rescued with exogenous ELA
levels of P53 protein following exposure to stress (hESCs [7]): no apparent effect
BAX localisation (hESCs [7]; mitochondria versus cytoplasm): remained primarily in the cytoplasm
activation of CXCR4 (CXCR4 [8]): cannot activate CXCR4
